# *1 amine or outer side, *2 acyl side, *3 side chain or, on linkers, in order; H or OH if unused. Where a SMILES comes first, the peptide text is derived from it. [ ]: non-standard residue; d: D form. The star is where a group is joined. NH(β-GlcNAc) = CC(=O)N[C@@H]1[C@@H](O)[C@H](O)[C@@H](CO)O[C@H]1N*; X1 = CC(C)C[C@H](N[*:1])[C@@H](O)C[C@H](C(=O)[*:2])C(C)C; X2 = OC[C@H]1O[C@@H](N*)[C@@H](O)[C@@H](O)[C@@H]1O; GlcN = OC[C@H]1OC(O)[C@H](N*)[C@@H](O)[C@@H]1O; NMeH = CN[C@@H](Cc1c[nH]cn1)C(=O)O; NHCH2(2-pyridyl) = c1ccc(CN*)nc1; Boc = CC(C)(C)OC(=O)*; CO = O=C([*:1])[*:2]
# Molecular target: T1, renin (Homo sapiens, UniProt P00797)
# T1 sequence (P00797 67-406): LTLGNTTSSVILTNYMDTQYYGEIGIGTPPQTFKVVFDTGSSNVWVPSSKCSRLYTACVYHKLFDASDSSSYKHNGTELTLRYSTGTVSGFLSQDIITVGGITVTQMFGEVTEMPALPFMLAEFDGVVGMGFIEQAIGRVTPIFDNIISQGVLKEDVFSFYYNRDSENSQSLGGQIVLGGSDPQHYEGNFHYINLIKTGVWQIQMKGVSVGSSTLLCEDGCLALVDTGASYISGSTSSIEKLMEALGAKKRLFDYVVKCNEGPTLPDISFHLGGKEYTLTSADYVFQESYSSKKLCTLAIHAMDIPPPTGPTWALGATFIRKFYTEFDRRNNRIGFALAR
# Assay: renin inhibitory activity (IC50), determined as described in EP 0173481, pages 103-105
# Type: biochemical
# Conditions: renin inhibition; values given in molar units
# Source text: The determination of renin inhibitory activity of the compounds of the present invention (ICso's) are well known to one of ordinary skill in the art, as, for example, described in published European application 0173481, published 5 March 1986, pages 103-105.
row,IC50,SMILES
1,1.5 nM,"CC(C)[C@H](C[C@H](O)[C@H](CC1CCCCC1)NC(=O)[C@H](Cc1c[nH]cn1)N(C)C(=O)[C@H](Cc1ccccc1)NC(=O)[C@@H]1CCCN1C(=O)N[C@H]1C(O)O[C@H](CO)[C@@H](O)[C@@H]1O)C(=O)NC[C@H](C)O (relative stereo) [Example 29, [1 S-[1 R*,2R*,4R*(R*)]]-1-[[(2-Deoxy-D-glucopyranos-2-yl)amino]carbonyl]-L-Prolyl-L-phenylalaryl-N-[1-(cyclohexylmethyl)-2-hydroxy-4-[[(2-hydroxypropyl)-amino]carbonyl]-5-methylhexyl]-Nα-methyl-L-histidinamide]"
2,0.55 nM,"CC[C@H](C)[C@H](NC(=O)[C@@H](C[C@H](O)[C@H](CC(C)C)NC(=O)[C@H](Cc1c[nH]cn1)N(C)C(=O)[C@H](Cc1ccccc1)NC(=O)[C@@H]1CCCN1C(=O)[C@H](CC(=O)N[C@@H]1O[C@H](CO)[C@@H](O)[C@H](O)[C@@H]1O)NC(=O)OC(C)(C)C)C(C)C)C(=O)NCc1ccccn1 [Example 38, β-Man-α-N-Boc-Asn-Pro-Phe-N-MeHis-Leu[CH(OH)CH2]-Val-Ile-AMP] (Boc-D(X2)PF[NMeH][X1]I-{NHCH2(2-pyridyl)})"
3,0.3 nM,"COC(=O)CC[C@H](NC(=O)[C@@H](C[C@H](O)[C@H](CC1CCCCC1)NC(=O)[C@H](Cc1c[nH]cn1)N(C)C(=O)[C@H](Cc1ccccc1)NC(=O)[C@@H]1CCCN1C(=O)NC(CO)(CO)CO)C(C)C)C(=O)NCc1ccccn1 (relative stereo) [Example 32, [1 S-[1R*,2R*,4R*(R*)]]-1-[[[2-Hydroxy-1,1-bis(hydroxymethyl)ethyl]amino]carbonyl]-L-prolyl-L-phenylalaryl-N-[1-(cyclohexylmethyl)-2-hydroxy-4-[[[4-methoxy-4-oxo-1-[[(2-pyridinylmethyl)amino]carbonyl]-butyl]-amino]carbonyl]-5-methyl-hexyl]-Nα-methyl-L-histidinamide]"
4,0.41 nM,"CC[C@H](C)[C@H](NC(=O)[C@@H](C[C@H](O)[C@H](CC(C)C)NC(=O)[C@H](Cc1c[nH]cn1)N(C)C(=O)[C@H](Cc1ccccc1)NC(=O)[C@@H]1CCCN1C(=O)[C@H](CC(=O)N[C@@H]1O[C@H](CO)[C@@H](O)[C@H](O)[C@H]1NC(C)=O)NC(=O)OC(C)(C)C)C(C)C)C(=O)NCc1ccccn1 [Example 36, β-N-AcGLc-α-N-Boc-Asn-Pro-Phe-N-MeHis-Leu[CH(OH)CH2]-Val-Ile-AMP] (Boc-D(NH(β-GlcNAc))PF[NMeH][X1]I-{NHCH2(2-pyridyl)})"

row,SMILES,IC50
1,"CC[C@H](C)[C@H](NC(=O)[C@@H](C[C@H](O)[C@H](CC(C)C)NC(=O)[C@H](Cc1c[nH]cn1)N(C)C(=O)[C@H](Cc1ccccc1)NC(=O)[C@@H]1CCCN1C(=O)N[C@H]1C(O)O[C@H](CO)[C@@H](O)[C@@H]1O)C(C)C)C(=O)NCc1ccccn1 (stereo partly drawn) [Example 9, N-(Glucosaminocarbonyl)-Pro-Phe-N(Me)His-LVA-lie-AMP] ({GlcN-CO}-PF[NMeH][X1]I-{NHCH2(2-pyridyl)})",0.49 nM

# Same assay, conditions: renin inhibition; values in nM
row,IC50,SMILES
1,2.4 nM,"CC(C)C[C@H](O)[C@H](O)[C@H](CC1CCCCC1)NC(=O)[C@H](Cc1c[nH]cn1)N(C)C(=O)[C@H](Cc1ccccc1)NC(=O)[C@@H]1CCCN1C(=O)N[C@H]1C(O)O[C@H](CO)[C@@H](O)[C@@H]1O (relative stereo) [Example 13, L-Histadinamide, 1-([(2-deoxy-D-glucopyranos-2-yl)amino]carbonyl]-L-prolyl-L-phenylalanyl-N-[1-(cyclohexylmethyl)-2,3-dihydroxy-5-methylhexyl]-N.aIpha.-methyl-, [1 S-(1 R*,2S*,3R(*)]]-]"
2,0.21 nM,"COc1ccc(C[C@H](NC(=O)[C@@H]2CCCN2C(=O)NC(CO)(CO)CO)C(=O)N[C@@H](Cc2c[nH]cn2)C(=O)N[C@@H](CC2CCCCC2)[C@@H](O)[C@@H](O)CC(C)C)cc1 [Example 14, L-Histidinamide, 1-[[[2-hydroxy-1,1-bis(hydroxymethyl)ethyl]amino]carbonyl]-L-prolyl-O-methyl-L-tyrosyl-N-[1-(cyclohexylmethyl)-2,3-dihydroxy-5-methylhexyl]-, [1S-(1R*,2S*,3R*)]-]"
3,2.3 nM,COc1ccc(C[C@H](NC(=O)[C@@H]2CCCN2C(=O)N[C@H]2C(O)O[C@H](CO)[C@@H](O)[C@@H]2O)C(=O)N[C@@H](Cc2c[nH]cn2)C(=O)N[C@@H](CC2CCCCC2)[C@@H](O)[C@@H](O)CC(C)C)cc1 (relative stereo) [Example 15]
4,0.26 nM,"CC(C)C[C@H](O)[C@H](O)[C@H](CC1CCCCC1)NC(=O)[C@H](Cc1c[nH]cn1)N(C)C(=O)[C@H](Cc1ccccc1)NC(=O)[C@@H]1CCCN1C(=O)NC(CO)(CO)CO (relative stereo) [Example 12, L-Histidinamide, 1-[[[2-hydroxy-1,1-bis(hydroxymethyl)ethyl]amino]carbonyl]-L-prolyl-L-phenylalanyl-N-[1 (cyclohexylmethyl)-2,3-dihydroxy-5-methylhexyl]-Nα-methyl-, [1 S-(1 R*,2S*,3R*)-]-]"
